Experimental data taken from PubChem BioAssay (NCI).
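96-well plates; 48 h exposure; 5 concentrations. Endpoints by linear interpolation between flanking doses. Not reached: highest tested concentration assigned. GI50: concentration for 50% inhibition of growth. TGI denotes the concentration required for complete inhibition of growth.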

What was measured:
Assay in all cases: inhibition of tumour cell growth, NCI panel, 48 h
786-0 renal = test system: 786-0 renal
A549 NSCLC = test system: A549 NSCLC
ACHN renal = test system: ACHN renal
BT-549 breast = test system: BT-549 breast
CAKI-1 renal = test system: CAKI-1 renal
CCRF-CEM leukemia = test system: CCRF-CEM leukemia
COLO 205 colon = test system: COLO 205 colon
DU-145 prostate = test system: DU-145 prostate
EKVX NSCLC = test system: EKVX NSCLC
HCT-15 colon = test system: HCT-15 colon
HL-60(TB) leukemia = test system: HL-60(TB) leukemia
HOP-62 NSCLC = test system: HOP-62 NSCLC
HOP-92 NSCLC = test system: HOP-92 NSCLC
HS 578T breast = test system: HS 578T breast
HT29 colon = test system: HT29 colon
IGROV1 ovarian = test system: IGROV1 ovarian
K-562 leukemia = test system: K-562 leukemia
KM12 colon = test system: KM12 colon
LOX IMVI melanoma = test system: LOX IMVI melanoma
M14 melanoma = test system: M14 melanoma
MALME-3M melanoma = test system: MALME-3M melanoma
MDA-MB-231 breast = test system: MDA-MB-231 breast
MDA-MB-435 = test system: MDA-MB-435
MOLT-4 leukemia = test system: MOLT-4 leukemia
NCI-H226 lung = test system: NCI-H226 lung
NCI-H23 lung = test system: NCI-H23 lung
NCI-H460 lung = test system: NCI-H460 lung
NCI-H522 lung = test system: NCI-H522 lung
NCI/ADR-RES ovarian = test system: NCI/ADR-RES ovarian
OVCAR-3 ovarian = test system: OVCAR-3 ovarian
OVCAR-4 ovarian = test system: OVCAR-4 ovarian
OVCAR-5 ovarian = test system: OVCAR-5 ovarian
OVCAR-8 ovarian = test system: OVCAR-8 ovarian
PC-3 prostate = test system: PC-3 prostate
RPMI-8226 leukemia = test system: RPMI-8226 leukemia
RXF 393 renal = test system: RXF 393 renal
SF-268 CNS = test system: SF-268 CNS
SF-295 CNS = test system: SF-295 CNS
SF-539 CNS = test system: SF-539 CNS
SK-MEL-2 melanoma = test system: SK-MEL-2 melanoma
SK-MEL-28 melanoma = test system: SK-MEL-28 melanoma
SK-MEL-5 melanoma = test system: SK-MEL-5 melanoma
SK-OV-3 ovarian = test system: SK-OV-3 ovarian
SN12C renal = test system: SN12C renal
SNB-19 CNS = test system: SNB-19 CNS
SNB-75 CNS = test system: SNB-75 CNS
SR leukemia = test system: SR leukemia
SW-620 colon = test system: SW-620 colon
T-47D breast = test system: T-47D breast
TK-10 renal = test system: TK-10 renal
U251 CNS = test system: U251 CNS
UACC-62 melanoma = test system: UACC-62 melanoma
UO-31 renal = test system: UO-31 renal

Compound: COc1ccc(C(=S)N(C)NC(=O)CC(=O)NN(C)C(=S)c2ccc(OC)cc2)cc1
- GI50 (786-0 renal): 58.5 µM
- TGI (786-0 renal): > 100 µM
- GI50 (A549 NSCLC): 24.5 µM
- TGI (A549 NSCLC): > 100 µM
- GI50 (ACHN renal): 50.7 µM
- TGI (ACHN renal): > 100 µM
- GI50 (BT-549 breast): 50.3 µM
- TGI (BT-549 breast): > 100 µM
- GI50 (CAKI-1 renal): 31.8 µM
- TGI (CAKI-1 renal): > 100 µM
- GI50 (CCRF-CEM leukemia): 23.4 µM
- TGI (CCRF-CEM leukemia): > 100 µM
- GI50 (COLO 205 colon): 12.8 µM
- TGI (COLO 205 colon): 70.8 µM
- GI50 (DU-145 prostate): 46.9 µM
- TGI (DU-145 prostate): > 100 µM
- GI50 (EKVX NSCLC): 32 µM
- TGI (EKVX NSCLC): > 100 µM
- GI50 (HCT-15 colon): 17.6 µM
- TGI (HCT-15 colon): > 100 µM
- GI50 (HL-60(TB) leukemia): > 100 µM
- TGI (HL-60(TB) leukemia): > 100 µM
- GI50 (HOP-62 NSCLC): > 100 µM
- TGI (HOP-62 NSCLC): > 100 µM
- GI50 (HOP-92 NSCLC): 0.283 µM
- TGI (HOP-92 NSCLC): > 100 µM
- GI50 (HS 578T breast): 24.4 µM
- TGI (HS 578T breast): 82.6 µM
- GI50 (HT29 colon): 39.1 µM
- TGI (HT29 colon): > 100 µM
- GI50 (IGROV1 ovarian): 54.4 µM
- TGI (IGROV1 ovarian): > 100 µM
- GI50 (K-562 leukemia): 59.4 µM
- TGI (K-562 leukemia): > 100 µM
- GI50 (KM12 colon): 62.7 µM
- TGI (KM12 colon): > 100 µM
- GI50 (LOX IMVI melanoma): 28.9 µM
- TGI (LOX IMVI melanoma): > 100 µM
- GI50 (M14 melanoma): 33.5 µM
- TGI (M14 melanoma): > 100 µM
- GI50 (MALME-3M melanoma): 52.3 µM
- TGI (MALME-3M melanoma): > 100 µM
- GI50 (MDA-MB-231 breast): > 100 µM
- TGI (MDA-MB-231 breast): > 100 µM
- GI50 (MDA-MB-435): 59.9 µM
- TGI (MDA-MB-435): > 100 µM
- GI50 (MOLT-4 leukemia): > 100 µM
- TGI (MOLT-4 leukemia): > 100 µM
- GI50 (NCI-H226 lung): 49.8 µM
- TGI (NCI-H226 lung): > 100 µM
- GI50 (NCI-H23 lung): 46.6 µM
- TGI (NCI-H23 lung): > 100 µM
- GI50 (NCI-H460 lung): 18.1 µM
- TGI (NCI-H460 lung): > 100 µM
- GI50 (NCI-H522 lung): 45.9 µM
- TGI (NCI-H522 lung): > 100 µM
- GI50 (NCI/ADR-RES ovarian): 29.1 µM
- TGI (NCI/ADR-RES ovarian): > 100 µM
- GI50 (OVCAR-3 ovarian): 36.5 µM
- TGI (OVCAR-3 ovarian): > 100 µM
- GI50 (OVCAR-4 ovarian): 31.7 µM
- TGI (OVCAR-4 ovarian): > 100 µM
- GI50 (OVCAR-5 ovarian): 76.3 µM
- TGI (OVCAR-5 ovarian): > 100 µM
- GI50 (OVCAR-8 ovarian): 38.9 µM
- TGI (OVCAR-8 ovarian): > 100 µM
- GI50 (PC-3 prostate): 26.1 µM
- TGI (PC-3 prostate): > 100 µM
- GI50 (RPMI-8226 leukemia): 0.0119 µM
- TGI (RPMI-8226 leukemia): > 100 µM
- GI50 (RXF 393 renal): 40.4 µM
- TGI (RXF 393 renal): 92.3 µM
- GI50 (SF-268 CNS): 43.2 µM
- TGI (SF-268 CNS): > 100 µM
- GI50 (SF-295 CNS): 1.63 µM
- TGI (SF-295 CNS): 39 µM
- GI50 (SF-539 CNS): 51.9 µM
- TGI (SF-539 CNS): > 100 µM
- GI50 (SK-MEL-2 melanoma): 79.6 µM
- TGI (SK-MEL-2 melanoma): > 100 µM
- GI50 (SK-MEL-28 melanoma): 42.6 µM
- TGI (SK-MEL-28 melanoma): > 100 µM
- GI50 (SK-MEL-5 melanoma): 36.2 µM
- TGI (SK-MEL-5 melanoma): > 100 µM
- GI50 (SK-OV-3 ovarian): > 100 µM
- TGI (SK-OV-3 ovarian): > 100 µM
- GI50 (SN12C renal): 98 µM
- TGI (SN12C renal): > 100 µM
- GI50 (SNB-19 CNS): > 100 µM
- TGI (SNB-19 CNS): > 100 µM
- GI50 (SNB-75 CNS): > 100 µM
- TGI (SNB-75 CNS): > 100 µM
- GI50 (SR leukemia): > 100 µM
- TGI (SR leukemia): > 100 µM
- GI50 (SW-620 colon): 33.3 µM
- TGI (SW-620 colon): > 100 µM
- GI50 (T-47D breast): 58.6 µM
- TGI (T-47D breast): > 100 µM
- GI50 (TK-10 renal): 67 µM
- TGI (TK-10 renal): > 100 µM
- GI50 (U251 CNS): 45.8 µM
- TGI (U251 CNS): > 100 µM
- GI50 (UACC-62 melanoma): 37 µM
- TGI (UACC-62 melanoma): > 100 µM
- GI50 (UO-31 renal): 24.9 µM
- TGI (UO-31 renal): > 100 µM
